Data set [1] can be described thus: Stability in phosphate-buffered saline. The format is physicochemical. Particulars: 25 MBq/nmol, 24 h; for intact complex in PBS: no radioprotectant, ambient temperature. The method, then:
The stability of the preformed [^64Cu]Cu^2+ complexes in phosphate-buffered saline (PBS) was explored by diluting the labelling solution 1:1 v/v in PBS (pH 7.4). Both low and high molar activities (0.1 MBq/nmol and 25 MBq/nmol, respectively) were employed to evaluate the effect of radiolysis. Radioprotectants (ethanol 10% v/v or ascorbic acid 10% v/v) were added to PBS to quench the radiolysis phenomena. The [^64Cu]Cu^2+ complex stabilities were investigated at different time points after preparation using the TLC or UHPLC protocols reported previously.

Data set [2] is described as follows: Stability assay with cysteine (1000:1 Cys-to-ligand). Format: physicochemical. Particulars: 37 °C. The method, then: (§1) The stability of the preformed [^64Cu]Cu^2+ complexes was assessed by adding a 1000:1 DOTA/cysteine-to-ligand molar ratio excess. The incubation temperature was set at 37 °C when cysteine was used to simulate the biological environment, whilst it was kept at RT when DOTA was employed as a challenging agent.
(§2) The complex stability was evaluated over time by withdrawing an aliquot from the reaction mixtures. The latter was analyzed by UHPLC using the method described above.

A short description of data set [3]: Stability assay with DOTA (1000:1 DOTA-to-ligand). The format is physicochemical. The note with it: RT. The method, then:
as §1, §2

A short description of the next data set: Human serum stability. The note with it: prepared at 25 MBq/nmol, 37 °C, over 24 h. Format: in vitro ADME. The method, then: Human serum stability assays were performed as follow: the preformed [^64Cu]Cu^2+ complexes (prepared at 25 MBq/nmol) were diluted 1:5 v/v in human serum. The samples were incubated at 37 °C to simulate the biological environment. At the defined time point, 50 μL of the plasma-containing mixture were added to 200 μL of ice-cold methanol (0.16 MBq/μL final concentration) and centrifuged for 3 min at 8000 rpm. Afterwards, 2 μL of supernatant were spotted on TLC plates developed using the previous protocols. Dissociation of [^64Cu]Cu^2+ from the complexes was also monitored at varying time points using the same procedure with the exception that no proteins were precipitated. In this case, 2 μL of human plasma containing the labelled complex was directly spotted on the TLC plate. […] Both procedures were validated by incubating free [^64Cu]Cu^2+ with human plasma.

Data set [4] is described as follows: Biodistribution in BALB/c nude mice. Format: in vivo. The method, then:
(§3) All procedures involving animals were performed in accordance with ethical protocols approved by the Italian Ministry of Health (n. 44/2021-PR). Six-week-old female BALB/c nude mice (n = 9) were purchased from Charles River/Envigo and divided into three groups. Mice (n = 3/group) were administered with 7–14 MBq (depending on acquisition time after injection) of [^64Cu][Cu(DO2A2S)] solution by caudal intravenous injection. The exact amount of injected radioactivity was determined using a Capintec CRC-15PET dose calibrator. Micro PET/CT data were collected at 1, 4, and 24 h post injection using a Bruker Albira Si. Mice were anaesthetized with 1–2% isoflurane in a flow of oxygen (2 L/min 100% O2) and images were acquired over 20 min (10 min for PET and CT images acquisition, respectively). PET data were reconstructed using MLEM GPU (Graphics Processing Unit), while Filter Back Projection Algorithm was used for reconstructing CT images. Mice were euthanized by cervical dislocation immediately following the PET/CT scan and organs and tissues of interest were collected and weighed. Radioactivity associated with organs was measured using a γ-spectrometer based on a 1″×1″ inch cylindrical LBC (Lanthanum BromoChloride), LaBr2.85Cl0.15:Ce, inorganic scintillator manufactured by SCIONIX coupled to a HAMAMATSU R11102 Photomultiplier tube (PMT) which was previously characterized and validated against a Capintec CRC-15PET dose calibrator [48]. The results were corrected for decay to the time of injection. Radioactivity values were expressed as percentage of injected dose (mean ± SEM) per gram of tissue or organ (% ID/g). Concurrently, blood and urine aliquots (1 μL) were sampled for stability tests, which were carried out by radio-TLC scans (Cyclone, Perkin Elmer) by using silica gel 60 RP-18 F254S plates and 0.1 M sodium citrate as eluent.

Data set [5] is described as follows: In vivo stability in blood and urine samples (radio-TLC). Further details: species or system BALB/c nude mice. The method, then:
as §3, with “PET data were reconstructed using MLEM GPU (Graphics Processing Unit), while Filter Back Projection Algorithm was used for reconstructing CT images. Mice were euthanized by cervical dislocation immediately following the PET/CT scan and organs and tissues of interest were collected and weighed.” left out, “The results were corrected for decay to the time of injection.” left out, “Concurrently, blood and urine aliquots (1 μL) were sampled for stability tests, which were carried out by radio-TLC scans (Cyclone, Perkin Elmer) by using silica gel 60 RP-18 F254S plates and 0.1 M sodium citrate as eluent.” left out

Setting [6] is: maximum reached over 1-24 h post-injection.

Molecules are shown by their SMILES. Some results are limits rather than exact numbers.

The results in this text go back to PMC9268100, “Chelation of Theranostic Copper Radioisotopes with S-Rich Macrocycles: From Radiolabelling of Copper-64 to In Vivo Investigation” (Molecules, 2022).

Regarding `CSCCN1CCN(CCSC)CCN(CCSC)CCN(CCSC)CC1` [DO4S, 1,4,7,10-Tetrakis[2-(methylsulfanyl)ethyl]-1,4,7,10-tetraazacyclododecane], the “intact complex in PBS” value in data set [1] is recorded as ~ 70%.

On to `CSCCN1CCN(CC(=O)O)CCN(CCSC)CCN(CC(=O)O)CC1` [DO2A2S, 1,7-bis[2-(methylsulfanyl)ethyl]-4,10,diacetic acid-1,4,7,10-tetraazacyclododecane], for which the “intact complex in PBS with ascorbic acid” value in data set [1] (ascorbic acid 10% v/v) was ~ 90%. Besides, the “intact complex in PBS” value in data set [1] is ~ 25%.

On to `CNC(=O)CN1CCN(CCSC)CCN(CCSC)CCN(CCSC)CC1.[64Cu+2]` [[^64Cu][Cu(DO3SAm)]^2+], for which, in data set [2], the “% of intact complex, Cysteine, 0 h” value stood at 100%; the “% of intact complex, Cysteine, 3 h” value came out at 83%; the “% of intact complex, Cysteine, 24 h” value is reported as 72%. In addition, in data set [3], the “% of intact complex, DOTA, 0 h” value came to 100%; the “% of intact complex, DOTA, 7 h” value was 80%; the “% of intact complex, DOTA, 24 h” value was 38%.

Turning to `CSCCN1CCN(CCSC)CCN(CCSC)CCN(CCSC)CC1.[64Cu+2]` [[^64Cu][Cu(DO4S)]^2+], the “complex stability in PBS with radioprotectants” value in data set [1] (ethanol 10% v/v or ascorbic acid 10% v/v) was “preserve the complex over 24 h”. In addition, in data set [2], the “% of intact complex, Cysteine, 0 h” value was determined as 100%; the “% of intact complex, Cysteine, 3 h” value is reported as 100%; the “% of intact complex, Cysteine, 24 h” value was determined as 83%. Further, in data set [3], the “% of intact complex, DOTA, 0 h” value came out at 100%; the “% of intact complex, DOTA, 7 h” value is 92%; the “% of intact complex, DOTA, 24 h” value worked out at 88%.

Regarding `O=C([O-])CN1CCN(CC(=O)[O-])CCN(CC(=O)[O-])CCN(CC(=O)[O-])CC1.[64Cu+2]` [[^64Cu][Cu(DOTA)]^2−, reference compound], in the data set “Human serum stability”, the “intact complex in human serum” value is listed as “around 80%”.

`CSCCN1CCN(CC(=O)[O-])CCN(CCSC)CCN(CC(=O)[O-])CC1.[64Cu+2]` [[^64Cu][Cu(DO2A2S)]]: in data set [4] (1 h post-injection, tail vein), the blood levels was less than 2 % ID/g, the kidneys uptake is 14.1 % ID/g, the liver uptake was 14.0 % ID/g and the lungs uptake stood at 8 % ID/g. In data set [4] (1 h post-injection, tail vein), this compound had a pancreas uptake of 3 % ID/g, a retention in bone of less than 2 % ID/g, a retention in muscle of less than 1 % ID/g and a spleen uptake of 4 % ID/g. In data set [4] (24 h versus 1 h post-injection), the “dose found at 1 h remaining in kidneys at 24 h” value was 73%, the “dose found at 1 h remaining in liver at 24 h” value is given as 82% and the “dose found at 1 h remaining in lungs at 24 h” value worked out at 75%. Besides, in data set [4] (setting [6]), the “pancreas uptake, progressive accumulation over time” value is given as no more than 5.5 % ID/g and the “spleen uptake, progressive accumulation over time” value is reported as “up to 5.3 % ID/g”. Also, the “intact complex in human serum” value in “Human serum stability” was greater than 99%. Further, in data set [2], the “% of intact complex, Cysteine, 0 h” value is recorded as 100%; the “% of intact complex, Cysteine, 3 h” value is 85%; the “% of intact complex, Cysteine, 24 h” value was determined as 74%. The “free-[^64Cu]Cu^2+/+ in urine samples” value in data set [5] (4 h post-injection) is roughly 50%. Besides, in data set [5] (within 24 h from the injection), the “free copper-64 in blood samples” value is listed as “less than 5%”. Also, in data set [3], the “% of intact complex, DOTA, 0 h” value is 91%; the “% of intact complex, DOTA, 7 h” value is listed as 90%; the “% of intact complex, DOTA, 24 h” value is 87%.

Consider `CSCCN1CCNCCN(CCSC)CCN(CCSC)CC1.[64Cu+2]` [[^64Cu][Cu(DO3S)]^2+], for which, in data set [2], the “% of intact complex, Cysteine, 0 h” value is 100%; the “% of intact complex, Cysteine, 3 h” value stood at 100%; the “% of intact complex, Cysteine, 24 h” value worked out at 100%. Also, in data set [3], the “% of intact complex, DOTA, 0 h” value is listed as 100%; the “% of intact complex, DOTA, 7 h” value was 100%; the “% of intact complex, DOTA, 24 h” value was determined as 100%.
